Measurements: ChEMBL document CHEMBL5608113, “Targeting of CAF-induced therapy resistance in CRC organoid-stroma co-cultures” (2024)

Assays:
Format in all cases: functional, Homo sapiens
Conditions in all cases: Homo sapiens, read-out: Cell Viability; for viability at 10 µM: Concentration 10 uM; for viability at 1 µM: Concentration 1 uM
Colon cancer organoid [1] = experiment: Targeting of F14 CAF-induced therapy resistance in O23 CRC organoid-stroma co-culture. Cell viability is reported without Gefitinib.
Colon cancer organoid [2] = experiment: Targeting of F14 CAF-induced therapy resistance in O23 CRC organoid-stroma co-culture. Cell viability is reported with SN-38.
Colon cancer organoid [3] = experiment: Targeting of F14 CAF-induced therapy resistance in O14 CRC organoid-stroma co-culture. Cell viability is reported without Gefitinib.
Colon cancer organoid [4] = experiment: Targeting of F14 CAF-induced therapy resistance in O23 CRC organoid-stroma co-culture. Cell viability is reported with Gefitinib.
Colon cancer organoid [5] = experiment: Targeting of F14 CAF-induced therapy resistance in O14 CRC organoid-stroma co-culture. Cell viability is reported with Gefitinib.

SMILES	viability at 10 µM (Colon cancer organoid [1]) [%]	viability at 10 µM (Colon cancer organoid [2]) [%]	viability at 10 µM (Colon cancer organoid [3]) [%]	viability at 10 µM (Colon cancer organoid [4]) [%]	viability at 10 µM (Colon cancer organoid [5]) [%]	viability at 1 µM (Colon cancer organoid [1]) [%]	viability at 1 µM (Colon cancer organoid [2]) [%]	viability at 1 µM (Colon cancer organoid [3]) [%]	viability at 1 µM (Colon cancer organoid [4]) [%]	viability at 1 µM (Colon cancer organoid [5]) [%]
CC1(C)C(N)=Nc2cc(OCCCN3Cc4ccc(OCCc5cn(CC(=O)N6CCC(CCN7CCCC7)CC6)nn5)cc4C3)c(OCC3CC3)cc21	11.8	7.1	111	9.03	68.9					
CC1(C)C(N)=Nc2cc(OCCCCN3Cc4ccc(OCc5cn(CC(=O)N6CCC(CCN7CCCC7)CC6)nn5)cc4C3)c(OCC3CC3)cc21	86.3	78.3	107	44	45.4					
COc1ccccc1-c1cc(N2CCN(C(=O)OC(C)(C)C)CC2)c(N)nn1	49.4	35.8	101	37.8	53.4					
COc1cc(OC)cc(-c2noc(N3CCN(C)C4(CCN(c5ccccc5)CC4)C3)n2)c1	104	81.3	114	65.9	46.8					
N#CN1CC[C@H](C(=O)Nc2nc3c(s2)CN(C(=O)CN=[N+]=[N-])CC3)C1 [8RK64]	108	40.9	105	43.1	33.4					
CN(C)[C@@H]1CCN(c2cc(-c3ccccc3)nc3ccnn23)C1 [(R)-ZINC-3573]	130	70.6	68.2	61.7	30.9					
CN(C)[C@H]1CCN(c2cc(-c3ccccc3)nc3ccnn23)C1 [(S)-ZINC-3573]	98.9	49.3	68.9	55.6	33.4					
Cn1cncc1[C@@](O)(COc1ccc(C#N)cc1-c1ccc(OC(F)(F)F)cc1)c1ccc(C#N)cc1 [A-108]	131	112	108	69.3	47.8					
CCC(=N\O)/C(C)=C/c1ccc(F)c(C)c1 [A-226]	97.1	93.1	119	49.8	62.5					
CNC(=O)Nc1ccc2c(c1)CC[C@@]21OC(=O)N(CC(=O)N(Cc2ccc(F)cc2)[C@@H](C)C(F)(F)F)C1=O [A-485]						60.4	51	65.4	34.6	23.9
CNC(=O)Nc1ccc2c(c1)[C@@]1(CC2)OC(=O)N(CC(=O)N(Cc2ccc(F)cc2)[C@@H](C)C(F)(F)F)C1=O [A-486]						92.2	69.7	90.8	47.9	50
CCCCN(CCCC)C(=O)CN1C[C@@H](c2cc(OC)c3c(c2)OCO3)[C@H](C(=O)O)[C@H]1CC(C)(C)CCC [A-545]	142	88.5	83.6	47	61.5					
CSc1cccnc1N1CCN(Cc2nc3ccccc3[nH]2)CC1 [A-769]	111	103	73.4	59	36.4					
CCCOc1ccc([C@H]2[C@H](C(=O)O)[C@@H](c3ccc4c(c3)OCO4)CN2CC(=O)Nc2c(CC)cccc2CC)cc1 [A-192621]						112	50	117	48.1	27.4
CN(C)CC#Cc1ccc(OCCCc2sc(N3CCc4cccc(C(=O)Nc5nc6ccccc6s5)c4C3)nc2C(=O)O)c(F)c1 [A-1155463]	5.72	0.449	61.6	2.66	21.1					
CO[C@H]1CC[C@H](CNc2ccc(S(=O)(=O)NC(=O)c3ccc(N4CCN(CC5=C(c6ccc(Cl)cc6)CC(C)(C)CC5)CC4)cc3Oc3cnc4[nH]ccc4c3)cc2[N+](=O)[O-])CC1 [A-1211212]	83.3	32.3	40.4	30.6	25					
COc1ccc2c(c1)O[C@H](c1ccc(OC)c(OC)c1)C[C@@H]2NC(=O)C1(c2ccc3c(c2)OC(F)(F)O3)CC1 [A-1596584]	111	59.1	74.5	48.5	48.4					
COc1ccc2c(c1)O[C@@H](c1ccc(OC)c(OC)c1)C[C@H]2NC(=O)C1(c2ccc3c(c2)OC(F)(F)O3)CC1 [A-1596586]	129	51.3	121	42.2	44.6					
CCCOc1ccc([C@@H]2[C@@H](C(=O)O)[C@H](c3ccc4c(c3)OCO4)CN2CC(=O)Nc2c(CC)cccc2CC)cc1 [A-1806262]						85	54.5	79.9	38.9	47.8

SMILES	viability at 10 µM (Colon cancer organoid [1]) [%]	viability at 10 µM (Colon cancer organoid [2]) [%]	viability at 10 µM (Colon cancer organoid [3]) [%]	viability at 10 µM (Colon cancer organoid [4]) [%]	viability at 10 µM (Colon cancer organoid [5]) [%]	viability at 1 µM (Colon cancer organoid [1]) [%]	viability at 1 µM (Colon cancer organoid [2]) [%]	viability at 1 µM (Colon cancer organoid [3]) [%]	viability at 1 µM (Colon cancer organoid [4]) [%]	viability at 1 µM (Colon cancer organoid [5]) [%]
CCNC(=O)c1cc2c(-c3cc(C(C)(C)O)ccc3Oc3c(C)cc(F)cc3C)cn(C)c(=O)c2[nH]1 [ABBV-744]	135	75.1	78.2	82	14.3					
COc1cc(Nc2ncc3c(n2)-c2ccc(Cl)cc2C(c2c(F)cccc2OC)=NC3)ccc1C(=O)O [ALISERTIB]	32.9	46.6	16.2	13.7	7.3					
CC(C)[C@H](C(=O)Nc1ccc(C(=O)NO)cc1)c1ccccc1 [AR-42]	210	131	34.5	263	23.6					
Cc1cnc(-c2cc(Cl)ccc2F)cc1-n1c(=O)n(CC(N)=O)c2ccccc21 [Al11]	120	66.2	104	94.6	31.3					
Cc1ccccc1Oc1cc(-n2c(=O)cc(C(F)(F)F)[nH]c2=O)c2ccccc2c1Cl [BAY-069]	116	51.3	167	56.6	40.6					
Cn1c(-c2csc(C3CCN(CC4=NC5N=CC=CC5N4)CC3)n2)nc2ccccc21 (stereo not given) [BAY-070]	136	105	90.7	73.4	44.6					
NS(=O)(=O)c1cc(NC(=O)C2(c3ccccc3Cl)CC2)ccc1Oc1cccc(Cl)c1 [BAY-207]	78.6	61	86.8	42.5	34.8					
CNCc1ccccc1-c1csc([C@@H](C)Nc2nc(C)nc3cc(OC)c(OC)cc23)c1 [BAY-293]	69.8	50.2	64	35	16.6					
CNCc1ccccc1-c1csc([C@H](C)Nc2nc(C)nc3cc(OC)c(OC)cc23)c1 [BAY-294]						137	89	102	46.4	66.5
Cc1cc(NC(=O)c2cccc(S(F)(F)(F)(F)F)c2)cc(-n2ccn3nc(-c4cccnc4)cc23)c1 [BAY-309]	159	61.2	87.3	65	49.9					
O=C(N1CCS(=O)(=O)CC1)N1C[C@H](c2ccc(OC(F)(F)F)cc2)C[C@H](c2nc(C3CC3)no2)C1 [BAY-386]	120	74.8	103	55.9	53.2					
O[C@]1(C(F)(F)F)CCCC[C@H]1Nc1ccc(F)cc1 [BAY-390]						153	51	92.1	64.2	34
Cc1c(N2CCNCC2)nc2ccc(Br)cc2c1C(=O)NC[C@H](CCC(=O)O)c1ccccc1Cl [BAY-403]	60.5	87.2	85.5	48	29.6					
CN(C)c1ncnc(-c2ccc3nc(Nc4cc(CN5CCN(C(=O)CC(F)(F)F)CC5)ccn4)[nH]c3c2)c1Cl [BAY-440]	160	92.8	114	78.1	68.9					
Cc1noc([C@H]2C[C@@H](c3ccc(C(F)(F)F)cc3)CN(C(=O)N3CCS(=O)(=O)C3)C2)n1 [BAY-448]	124	95.1	99.7	58	49					
CC1=C(C#N)C(c2ccc3[nH]nc(C)c3c2)C(C#N)=C(C)N1 [BAY-474]	115	81.4	90.1	22.9	7.78					
Cc1c[nH]c2nccc(Oc3c(F)cc(Nc4cc(Cl)nc(N)n4)cc3F)c12 [BAY-549]						124	74.7	96.4	62.9	30.6
Cc1c(NC(=O)c2cc(C(N)=O)nc3cc(F)ccc23)c(C(F)(F)F)nn1Cc1ccc(C(C)(C)C)cc1 [BAY-588]						111	104	45.5	43.1	31.3
